Reference: US8017828B2, “Utilization of rare sugars in plant or microorganism” (Shikoku Research Institute Incorporated, priority 2004, dated 2011)

What was measured:
[1] = system: Brassica rapa var. amplexicaulis (variety: “Haru Ichiban”); test: Foliar spraying of sugar on Brassica rapa var. amplexicaulis; format: in vivo; settings: 0.5% solution sprayed; for Terminal bud weight: control (water) 3.0; for Stem diameter: control (water) 22.8; for Number of lateral buds: control (water) 32.3; for Plant length: control (water) 49.3; for Total weight of lateral buds: control (water) 235.3
From the text: Brassica rapa var. amplexicaulis is a vegetable in the Brassica family, and flower buds are harvested and used. As the same species of vegetables, broccoli, cauliflower and the like are exemplified, which are important horticultural crops. As for such a vegetable, development of flower buds has a large effect on the crop yield. Therefore, during the house cultivation of Brassica rapa var. amplexicaulis (variety: “Haru Ichiban”), foliar spraying of a sugar solution at a concentration of 0.5% (w/v) was carried out and effects on the growth and the development of flower buds were examined. The seeds of Brassica rapa var. amplexicaulis were sown in a 128-cell tray on Oct. 23, 2003 and raised for about 20 days. Then, the raised seedlings were transplanted for permanent planting with a planting distance of 40 cm on two rows with an inter row space of 50 cm in separate beds filled with soil for cultivation “Hana to Yasai no Tsuchi (garden soil for flowers and vegetables)” (Kurokawa Shubyo En) on Nov. 12, 2003. The cultivation was carried out by a simple fertigation system, and irrigation was carried out for 1 hour on a daily basis with a 2,000-fold dilution of Hyponex through an irrigation tube. The cultivation was carried out in a vinyl house without heating with side windows open. From Dec. 18, 2003, water or a 0.5% (w/v) sugar solution was sprayed onto the whole plant on a three times weekly basis. As for the types of sugars, D-glucose, D-fructose and D-psicose were used and five plants were cultivated for each test plot. On Feb. 23, 2004, three plants of medium size were harvested and a survey was carried out. The survey items were plant length, stem diameter, number of lateral buds, terminal bud weight, total weight of lateral buds and the like.

[2] = system: Pythium ultimum IFO 32426 strain; test: Oospore formation of Pythium ultimum in sugar solution; format: cell-based; settings: 0.05% (w/v) sugar solution, 23° C., 4 days
Method: With regard to Pythium ultimum that causes damping-off of spinach and the like, an effect of a rare sugar on oospore formation was examined.
First, as the Pythium ultimum, IFO 32426 strain was used, and static culture thereof was carried out with 200 ml of V8 medium at 23° C. for 1 week. The resulting mycelial mat was well washed with sterile water and divided into 16 equal parts with forceps. This mycerial body was disentangled uniformly to form a small piece and immersed in 20 ml of a sugar solution at a concentration of 0.05% (w/v) and let stand at 23° C. for 4 days. […] Further, the same experiment was carried out using Pythium zingiberum IFO 30817 strain.

[3] = system: Cymbidium; test: Growth of Cymbidium flask seedlings in tissue culture; format: in vivo; settings: 0.005% in MS medium; for Number of lateral buds: non 0; for Aerial part weight: non 2.1; for Underground part weight: non 3.8; for Number of roots: non 10.8
From the text: (§1) Flask seedlings of Phalaenopsis orchid and Cymbidium obtained by tissue culture were used in an experiment.
As for Cymbidium, in the same manner as the above Phalaenopsis orchid, MS medium supplemented with D-psicose, D-glucose, D-fructose or D-allose was used, and the flask seedlings were aseptically transplanted on Oct. 4, 2004. At this time, 4 or 5 leaves and 2 roots were left and the rest of them were cut off using a knife. As for the number of seedlings, 4 seedlings were used for 1 test plot, and glass bottles with a capacity of 900 ml and having a hole with a diameter of about 1 cm for preventing dew condensation made in the upper region was used as culture containers. The cultivation was carried out in a culture chamber at 25° C. and 5,000 Lux (12-hour day length) Then, on Feb. 1, 2005, a survey was carried out with regard to the growth conditions of aerial part and underground part, the number of roots and the number of lateral buds. The results are shown in Table 9 (effect of addition of rare sugar on the growth of seedlings of Cymbidium).

[4] = system: Phalaenopsis orchid; test: Growth of Phalaenopsis orchid flask seedlings in tissue culture; format: in vivo; settings: 0.005% in MS medium; for Underground part weight: non 2.9; for Aerial part weight: non 4.7; for Number of roots: non 12.5
Method: as §1
As for Phalaenopsis orchid, MS medium supplemented with D-psicose, D-glucose or D-fructose at a concentration of 0.005% (w/v) was used, and the flask seedlings were aseptically transplanted on Sep. 6, 2004. As for the number of seedlings, 4 seedlings were used for 1 test plot, and glass bottles with a capacity of 500 ml and having a hole with a diameter of about 1 cm for preventing dew condensation made in the upper region was used as culture containers. The cultivation was carried out in a culture chamber at 25° C. and 5,000 Lux (12-hour day length) Then, on Jan. 24, 2005, a survey was carried out with regard to the growth conditions of aerial part and underground part and the number of roots. The results are shown in Table 8 (effect of addition of D-psicose on the growth of seedlings of Phalaenopsis orchid).

[5] = system: rice plant (variety: “Hinohikari”); test: Foliar spraying of sugar on pot-grown rice; format: in vivo
Method: After seeds of a rice plant (variety: “Hinohikari”) were put in a nylon net and subjected to sterilization and a germination induction treatment in a growth chamber at 30° C. for 2 days while they were soaked in 0.1% (w/v) Benlate (Hokko Chemical Industry Co., Ltd.) in accordance with a common method, they were sown in a nursery tray filled with “Kumiai Ryujou Baido SD” (Kureha Chemical Industry Co., Ltd.) and raised in a phytotron (day temperature: 25° C. and night temperature: 18° C.) for about 2 weeks. Then, Wagner pots with a size of 1/5,000a were filled with “Kumiai Ryujou Baido SD” (Kureha Chemical Industry Co., Ltd.) and the raised rice seedlings were transplanted for permanent planting to the pots and the cultivation was started on Jul. 2, 2003 in the open air under the condition that the soil was covered with water in the pots. From Jul. 16, 2003, when the seedlings were confirmed to take root, water, a 0.02% (w/v) sugar solution, a 0.1% (w/v) sugar solution or a 0.5% (w/v) sugar solution was sprayed onto the whole plant on a three times weekly basis. As for the types of sugars, D-glucose, D-fructose and D-psicose were used and three pots were cultivated for each test plot. The cultivation was continued in such a manner that the water in pots was not dried up and after 5 g of Magamp K medium (HYPONeX JAPAN CORP., Ltd.) per pot was added as additional fertilization on Aug. 29, 2003, and the harvest and survey were carried out on Sep. 22, 2003. The survey items were plant length, number of tillers, leaf weight, husk weight, underground part weight and the like.

Structure (SMILES)	Terminal bud weight [1] [g]	Stem diameter [1] [mm]	Number of lateral buds [1]	Plant length [1] [cm]	Total weight of lateral buds [1] [g]	oospore formation [2]	Number of lateral buds [3] [buds]	Aerial part weight [3] [g]	Underground part weight [3] [g]	Number of roots [3] [roots]	Underground part weight [4] [g]	Aerial part weight [4] [g]	Number of roots [4] [roots]	Dry husk weight ([5]; 0.02% sugar solution sprayed) [g]	Dry leaf weight ([5]; 0.02% sugar solution sprayed) [g]	Number of tillers ([5]; 0.02% sugar solution sprayed)	Plant length ([5]; 0.02% sugar solution sprayed) [cm]	Dry husk weight ([5]; 0.10% sugar solution sprayed) [g]	Dry leaf weight ([5]; 0.10% sugar solution sprayed) [g]	Number of tillers ([5]; 0.10% sugar solution sprayed)	further results
O=C[C@H](O)[C@H](O)[C@H](O)[C@H](O)CO [D-allose]	7.9	23.6	38.0	60.7	222.5	not observed at all	3.8	2.7	4.0	12.8											
O=C(CO)[C@@H](O)[C@H](O)[C@H](O)CO [D-fructose, reference compound]	7.4	19.9	41.3	55.8	231.1	no effect	0	2.0	3.8	10.0	4.0	5.7	14.8	16.8	43.3	29.3	85.7	16.1	41.0	29.3	Plant length ([5]; 0.10% sugar solution sprayed): 84.3 cm; Dry husk weight ([5]; 0.50% sugar solution sprayed): 17.2 g; Dry leaf weight ([5]; 0.50% sugar solution sprayed): 36.4 g; Number of tillers ([5]; 0.50% sugar solution sprayed): 27.0; Plant length ([5]; 0.50% sugar solution sprayed): 85.7 cm
O=C[C@H](O)[C@@H](O)[C@H](O)[C@H](O)CO [D-glucose, reference compound]	5.7	20.6	32.0	56.3	198.1	no effect	0	1.9	2.9	9.5	3.7	5.1	12.3	17.2	34.0	29.3	74.0	17.6	35.5	30.0	Plant length ([5]; 0.10% sugar solution sprayed): 75.5 cm; Dry husk weight ([5]; 0.50% sugar solution sprayed): 17.9 g; Dry leaf weight ([5]; 0.50% sugar solution sprayed): 37.3 g; Number of tillers ([5]; 0.50% sugar solution sprayed): 31.3; Plant length ([5]; 0.50% sugar solution sprayed): 74.8 cm
O=C(CO)[C@H](O)[C@H](O)[C@H](O)CO [D-psicose]	8.8	26.9	43.0	61.2	225.0	inhibited	0.5	2.0	4.1	10.8	4.1	6.1	16.0	16.8	36.3	33.7	73.2	14.7	31.8	33.5	Plant length ([5]; 0.10% sugar solution sprayed): 76.3 cm; Dry husk weight ([5]; 0.50% sugar solution sprayed): 10.2 g; Dry leaf weight ([5]; 0.50% sugar solution sprayed): 27.9 g; Number of tillers ([5]; 0.50% sugar solution sprayed): 50.0; Plant length ([5]; 0.50% sugar solution sprayed): 71.3 cm
